Measured values published in patent US7772260B2, “Imidazo[2,1-b]-1,3,4-thiadiazole sulfonamides” (Aegera Therapeutics Inc., priority 2001, dated 2010).
Counter-ions that a name gives are not always drawn.

Each molecule was assayed on SCG neurons (assay: cells). Details: Rattus norvegicus, Neuron, 48 h, read-out: IC(50), protection of SCG neurons from Taxol killing.
Type: cell-based, Sprague Dawley rats
Method: Taxol™ is regularly used in breast cancer chemotherapy. In cancer cells Taxol™ binds to the cyto-skeletal protein tubulin, thereby inhibiting normal microtubular assembly and inducing cellular apoptosis. Despite its potency as an anti-tumour agent, Taxol™ is also toxic to neurons, inducing dose limiting peripheral neuropathies. The addition of Taxol™ (100 ng/mL) to cultured SCG neurons induces the degradation or loss of upwards of 80% of the neurons.
FIG. 1 illustrates the protection provided by compound 1 (referred to here as AEG3482) against Taxol™ induced killing. PI Sprague Dawley rat SCG neurons were cultured and incubated with NGF (50 ng/mL) for 5 days.
Work on CC1(C)CCC(C)(C)c2cc(-c3cn4nc(S(N)(=O)=O)sc4n3)ccc21 [Compound 56, 6-(5,5,8,8-Tetramethyl-5,6,7,8-tetrahydronaphthalen-2-yl)imidazo[2,1-b]-1,3,4-thiadiazole-2-sulfonamide] yielded an IC50 of 3 µM.
In the case of Cc1cc2c(cc1-c1cn3nc(S(N)(=O)=O)sc3n1)C(C)(C)CCC2(C)C [Compound 57], the IC50 is reported as 6 µM.
NS(=O)(=O)c1nn2cc(-c3cc4ccc5cccc6ccc(c3)c4c56)nc2s1 [Compound 64, 6-pyrenylimidazo[2,1-b]-1,3,4-thiadiazole-2-sulfonamide] was tested, and the IC50 was 10 µM.

Same assay, conditions: Rattus norvegicus, Neuron; Taxol™ (50 ng/mL), viability 48 hours later, MTS; read-out: IC(50), protection of SCG neurons from Taxol killing
COCCOCCOc1ccc(-c2cn3nc(S(N)(=O)=O)sc3n2)cc1 [Compound 30] was tested, and the IC50 was 10 µM.
NS(=O)(=O)c1nn2cc(-c3ccc(OCCOCc4ccccc4)cc3)nc2s1 [Compound 31, 6-(4′-(2-Benzyloxyethoxy)phenyl)-imidazo[2,1-b]-1,3,4-thidiazole-2 sulfonamide] showed an IC50 of 10 µM.
NS(=O)(=O)c1nn2cc(-c3ccc(OCCCOCc4ccccc4)cc3)nc2s1 [Compound 32] gave an IC50 of 10 µM.
With Cc1ccc(C23CC4CC(CC(C4)C2)C3)cc1-c1cn2nc(S(N)(=O)=O)sc2n1 [Compound 51] the IC50 was 5 µM.
NS(=O)(=O)c1nn2cc(-c3ccc(C(F)(F)F)cc3)nc2s1 [Compound 52, 6-(4-(Trifluoromethyl)phenyl)imidazo[2,1-b]-1,3,4-thiadiazole-2-sulfonamide] gave an IC50 of 3 µM.
NS(=O)(=O)c1nn2cc(-c3cc(C(F)(F)F)cc(C(F)(F)F)c3)nc2s1 [Compound 54, 6-(3,5-di(trifluoromethyl)phenyl)imidazo[2,1-b]-1,3,4-thiadiazole-2-sulfonamide] gave an IC50 of 10 µM.
Molecule CC(C)(C)c1cc(-c2cn3nc(S(N)(=O)=O)sc3n2)cc(C(C)(C)C)c1O [Compound 55, 6-(3,4-Di-tert-butyl-4-hydroxyphenyl)imidazo[2,1-b]-1,3,4-thiadiazole-2-sulfonamide] has an IC50 of 15 µM.
CC(=O)N[C@@H](C)c1ccc(-c2cn3nc(S(N)(=O)=O)sc3n2)cc1 [Compound 58, 6-(4-(S-1-acetamidoethyl)phenyl)imidazo[2,1-b]-1,3,4-thiadiazole-2-sulfonamide] was tested, and the IC50 was 30 µM.
In the case of NS(=O)(=O)c1nn2cc(C(F)(F)F)nc2s1 [Compound 59], the IC50 is reported as 10 µM.
In the case of NS(=O)(=O)c1nn2cc(C34CC5CC(CC(C5)C3)C4)nc2s1 [Compound 60, 6-(1-adamantyl)imidazo[2,1-b]-1,3,4-thiadiazole-2-sulfonamide], the IC50 is reported as 25 µM.
NS(=O)(=O)c1nn2cc(-c3cccc4ccccc34)nc2s1 [Compound 61, 6-(1-Naphthyl)imidazo[2,1-b]-1,3,4-thiadiazole-2-sulfonamide] was tested, and the IC50 was 10 µM.
For NS(=O)(=O)c1nn2cc(-c3ccc4ccccc4c3)nc2s1 [Compound 62, 6-(2-Naphthyl)imidazo[2,1-b]-1,3,4-thiadiazole-2-sulfonamide], the IC50 was 15 µM.
COc1ccc2ccc(-c3cn4nc(S(N)(=O)=O)sc4n3)cc2c1Br [Compound 63, 6-(8-Bromo-7-methoxylnaphth-2-yl)imidazo[2,1-b]-1,3,4-thiadiazole-2-sulfonamide] gave an IC50 of 7 µM.
Cc1c(-c2ccccc2)nc2sc(S(N)(=O)=O)nn12 [Compound 65, 5-Methyl-6-phenyl-imidazo[2,1-b]-1,3,4-thiadiazole-2-sulfonamide] gave an IC50 of 15 µM.
NS(=O)(=O)c1nn2c(-c3ccccc3)c(-c3ccccc3)nc2s1 [Compound 66, 5,6-Diphenyl-imidazo[2,1-b]-1,3,4-thiadiazole-2-sulfonamide] gave an IC50 of 20 µM.
NS(=O)(=O)c1nn2cc(-c3ccc(N4CCCCC4)cc3)nc2s1 [Compound 67, 6-(4-Piperidinophenyl)imidazo[2,1-b]-1,3,4-thiadiazole-2-sulfonamide] gave an IC50 of 10 µM.
For NS(=O)(=O)c1nn2cc(-c3ccc(N4CCOCC4)cc3)nc2s1 [Compound 68, 6-(4-Morpholinophenyl)imidazo[2,1-b]-1,3,4-thiadiazole-2-sulfonamide], the IC50 was 7 µM.
Nc1ccc(-c2cn3nc(S(N)(=O)=O)sc3n2)cc1 [Compound 70, 6-(4-Aminophenyl)imidazo[2,1-b]-1,3,4-thiadiazole-2-sulfonamide] gave an IC50 of 22 µM.
NS(=O)(=O)c1nn2cc(-c3ccc(B(O)O)cc3)nc2s1 [Compound 71] showed an IC50 greater than 30 µM.
NS(=O)(=O)c1nn2cc(-c3ccc(-c4c(F)c(F)c(F)c(F)c4F)cc3)nc2s1 [Compound 73, 6-(4-(2,3,4,5,6-tetrafluorophenyl)phenyl)imidazo[2,1-b]-1,3,4-thiadiazole-2-sulfonamide] showed an IC50 of 2 µM.
With COC(=O)COc1ccc(-c2cn3nc(S(N)(=O)=O)sc3n2)cc1 [Compound 101] the IC50 was greater than 30 µM.
NS(=O)(=O)c1nn2cc(-c3ccc(OCC(=O)O)cc3)nc2s1 [Compound 102] was tested, and the IC50 was greater than 30 µM.
In the case of COC(=O)COc1ccc(-c2nc3sc(S(N)(=O)=O)nn3c2C)cc1 [Compound 103], the IC50 is reported as greater than 30 µM.
Cc1ccc(-c2nc3sc(S(N)(=O)=O)nn3c2C)cc1Cl [Compound 104, 6-(3-chloro-4-methylphenyl)-5-methylimidazo[2,1-b]-1,3,4-thiadiazole-2-sulfonamide] was tested, and the IC50 was 7 µM.
Molecule NS(=O)(=O)c1nn2cc(-c3ccncc3)nc2s1 [Compound 107, 6-(4-Pyridyl)imidazo[2,1-b]-1,3,4-thiadiazole-2-sulfonamide] has an IC50 of 20 µM.
NS(=O)(=O)c1nn2cc(-c3cnccn3)nc2s1 [Compound 108] gave an IC50 of 5 µM.
Work on NS(=O)(=O)c1nn2cc(-c3ccc4c(c3)NC(=O)CO4)nc2s1 [Compound 110] yielded an IC50 greater than 30 µM.
NS(=O)(=O)c1nn2cc(-c3cccs3)nc2s1 [Compound 112, 6-(2-Thiophenyl)-imidazo[2,1-b]-1,3,4-thiadiazole-2-sulfonamide] was tested, and the IC50 was 5 µM.
NS(=O)(=O)c1nn2cc(-c3ccc(-c4ccccc4)s3)nc2s1 [Compound 113, 6-(5-Phenylthiophen-2-yl)-imidazo[2,1-b]-1,3,4-thiadiazole-2-sulfonamide] showed an IC50 of 7 µM.
For NS(=O)(=O)c1nn2cc(-c3ccc([N+](=O)[O-])s3)nc2s1 [Compound 114, 6-(5-Nitro-2-thiophenyl)-imidazo[2,1-b]-1,3,4-thiadiazole-2-sulfonamide hydrobromide], the IC50 was 7 µM.
Work on Cc1c(-c2cn3nc(S(N)(=O)=O)sc3n2)sc2ccccc12 [Compound 115, 6-(3-Methylbenzo[b]thiophen-2-yl)imidazo[2,1-b]-1,3,4-thiadiazole-2-sulfonamide] yielded an IC50 of 7 µM.
NS(=O)(=O)c1nn2cc(-c3csc4ccccc34)nc2s1 [Compound 116, 6-(Benzo[b]thiophen-3-yl)imidazo[2,1-b]-1,3,4-thiadiazole-2-sulfonamide] was tested, and the IC50 was 7 µM.
NS(=O)(=O)c1nn2cc(-c3cc(-c4ccccc4)no3)nc2s1 [Compound 117, 6-(3-Phenylisoxazol-5-yl)imidazo[2,1-b]-1,3,4-thiadiazole-2-sulfonamide] gave an IC50 of 3 µM.
Molecule Cc1onc(-c2ccccc2)c1-c1cn2nc(S(N)(=O)=O)sc2n1 [Compound 118, 6-(5-Methyl-3-phenylisoxazol-4-yl)imidazo[2,1-b]-1,3,4-thiadiazole-2-sulfonamide] has an IC50 of 17 µM.
For Cc1c(-c2cn3nc(S(N)(=O)=O)sc3n2)cnn1-c1ccccc1 [Compound 120, 6-(5-methyl-1-phenyl-1H-pyrazol-4-yl)imidazo[2,1-b]-1,3,4-thiadiazole-2-sulfonamide], the IC50 was 7 µM.
NS(=O)(=O)c1nn2cc(-c3nccs3)nc2s1 [Compound 121, 6-(Thiaxol-2-yl)imidazo[2,1-b]-1,3,4-thiadiazole-2-sulfonamide] gave an IC50 of 2 µM.
For Cc1nc(C)c(-c2cn3nc(S(N)(=O)=O)sc3n2)s1 [Compound 122, 6-(2,4-Thiaxol-5-yl)imidazo[2,1-b]-1,3,4-thiadiazole-2-sulfonamide], the IC50 was 8 µM.
Molecule NS(=O)(=O)c1nn2c(Cl)c(-c3ccccc3)nc2s1 [Compound 123, 5-Chloro-6-phenyl-imidazo[2,1-b]-1,3,4-thiadiazole-sulfonamide] has an IC50 greater than 30 µM.
NS(=O)(=O)c1nn2c(Br)c(-c3ccccc3)nc2s1 [Compound 124, 5-Bromo-6-phenyl-imidazo[2,1-b]-1,3,4-thiadiazole-2-sulfonamide hydrobromide] showed an IC50 of 3 µM.
Work on NS(=O)(=O)c1nn2c(Br)c(-c3ccccn3)nc2s1 [Compound 125, 5-Bromo-6-(2-pyridyl)imidazo[2,1-b]-1,3,4-thiadiazole-2-sulfonamide hydrobromide] yielded an IC50 of 3 µM.
For NS(=O)(=O)c1nn2c(Br)c(-c3ccc(Br)cc3)nc2s1 [Compound 128, 5-Bromo-6-(4-bromophenyl)imidazo[2,1-b]-1,3,4-thiadiazole-2-sulfonamide hydrobromide], the IC50 was 2 µM.
COc1cccc(-c2nc3sc(S(N)(=O)=O)nn3c2Br)c1Br [Compound 129, 5-Bromo-6-(2-bromo3-methoxyphenyl)imidazo[2,1-b]-1,3,4-thiadiazole-2-sulfonamide hydrobromide] showed an IC50 of 7 µM.
In the case of NS(=O)(=O)c1nn2c(Br)c(-c3ccc4ccccc4c3)nc2s1 [Compound 130, 5-Bromo-6-(2-naphthyl)imidazo[2,1-b]-1,3,4-thiadiazole-2-sulfonamide hydrobromide], the IC50 is reported as 2 µM.
NS(=O)(=O)c1nn2c(Cl)c(-c3ccc(-c4ccccc4)cc3)nc2s1 [Compound 131, 5-Chloro-6-(biphenyl)imidazo[2,1-b]-1,3,4-thiadiazole-2-sulfonamide hydrobromide] gave an IC50 of 3 µM.
Work on NS(=O)(=O)c1nn2c(Br)c(-c3ccc(-c4ccccc4)cc3)nc2s1 [Compound 132, 5-Bromo-6-(biphenyl)imidazo[2,1-b]-1,3,4-thiadiazole-2-sulfonamide hydrobromide] yielded an IC50 of 1 µM.
